PMC4194234 (Psychopharmacology, 2014)
Like-named read-outs stand apart in the source and are kept apart here.

Experiments:
[1] = molecular target: T1, Norepinephrine Transporter (NET) (Rattus norvegicus, UniProt Q63380); test: [3H]NE uptake inhibition, rat brain synaptosomes; type: biochemical
5-HT2A receptor [2] = molecular target: T2, 5-HT2A receptor (Homo sapiens, UniProt P28223); test: cell-based; type: cell-based; settings: for 5-HT2A agonist activity in calcium mobilization assay (in words) / 5-HT2A Emax: HEK293; for Emax: HEK293, read-out: 5-HT2A Emax; for 5-HT2A Emax: calcium mobilization, mean ± SEM, three experiments in duplicate
Target sequence in this assay (P28223 whole entry): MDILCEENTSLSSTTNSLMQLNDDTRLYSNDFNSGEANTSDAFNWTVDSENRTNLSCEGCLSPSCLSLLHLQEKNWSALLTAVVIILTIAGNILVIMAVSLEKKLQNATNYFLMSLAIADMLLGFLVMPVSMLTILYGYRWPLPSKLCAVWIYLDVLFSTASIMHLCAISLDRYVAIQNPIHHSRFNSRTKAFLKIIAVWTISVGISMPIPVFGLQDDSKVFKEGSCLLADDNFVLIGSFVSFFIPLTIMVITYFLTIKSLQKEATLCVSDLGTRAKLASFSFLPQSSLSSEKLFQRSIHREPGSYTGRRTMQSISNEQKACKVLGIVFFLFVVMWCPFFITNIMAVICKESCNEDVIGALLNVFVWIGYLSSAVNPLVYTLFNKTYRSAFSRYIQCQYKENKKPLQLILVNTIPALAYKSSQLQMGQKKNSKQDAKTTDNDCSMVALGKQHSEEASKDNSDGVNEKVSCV

5-HT1A receptor = molecular target: T3, 5-HT1A receptor (Homo sapiens, UniProt P08908); test: 5-HT1A calcium mobilization assay in Gα16-CHO cells; type: cell-based; settings: for 5-HT1A Emax: calcium mobilization, Gα16-CHO, mean ± SEM, three experiments in duplicate
T3 sequence (P08908 1-422): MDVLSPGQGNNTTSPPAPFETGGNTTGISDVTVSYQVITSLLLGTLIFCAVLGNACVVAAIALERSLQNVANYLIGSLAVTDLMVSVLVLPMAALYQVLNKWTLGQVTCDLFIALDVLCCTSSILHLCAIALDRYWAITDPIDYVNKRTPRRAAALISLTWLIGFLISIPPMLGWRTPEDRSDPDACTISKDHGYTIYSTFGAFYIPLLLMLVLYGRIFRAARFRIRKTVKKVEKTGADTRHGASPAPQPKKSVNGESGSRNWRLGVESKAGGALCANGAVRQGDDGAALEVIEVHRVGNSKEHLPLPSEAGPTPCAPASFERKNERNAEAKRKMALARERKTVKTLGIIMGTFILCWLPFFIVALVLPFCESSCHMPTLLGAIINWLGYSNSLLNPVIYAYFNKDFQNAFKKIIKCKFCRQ

5-HT2A receptor [3] = molecular target: T2, 5-HT2A receptor; test: cell-based; type: cell-based; settings: for Emax: CHO-K1, read-out: 5-HT2A β-arrestin Emax; for 5-HT2A β-arrestin recruitment activity (in words) / 5-HT2A β-arrestin Emax: CHOk1; for 5-HT2A β-arrestin recruitment activity (in words): screened at 10 µM; for 5-HT2A β-arrestin Emax: β-arrestin recruitment, mean ± SEM, three experiments in duplicate
Target sequence in this assay (P28223 whole entry): as the sequence (P28223 whole entry) above
Target sequence in this assay (P32121 whole entry, further chain): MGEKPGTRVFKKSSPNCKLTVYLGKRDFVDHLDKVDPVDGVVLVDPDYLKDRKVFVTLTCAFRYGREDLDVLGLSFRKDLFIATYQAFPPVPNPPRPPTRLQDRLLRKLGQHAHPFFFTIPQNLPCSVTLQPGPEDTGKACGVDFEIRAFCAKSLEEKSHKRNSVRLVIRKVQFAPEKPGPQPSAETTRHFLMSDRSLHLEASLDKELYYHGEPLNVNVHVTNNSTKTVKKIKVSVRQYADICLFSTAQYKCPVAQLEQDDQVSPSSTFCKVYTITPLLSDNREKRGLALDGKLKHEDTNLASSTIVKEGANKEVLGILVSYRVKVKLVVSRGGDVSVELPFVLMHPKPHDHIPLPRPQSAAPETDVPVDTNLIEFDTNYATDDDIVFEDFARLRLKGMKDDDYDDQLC

humans = settings: tabulated from anecdotal reports in TiHKAL, ref Shulgin and Shulgin 1997; cited from earlier work
SERT [4] = molecular target: T4, SERT (Rattus norvegicus, UniProt P31652); test: [3H]5-HT uptake inhibition, rat brain synaptosomes; settings: for 5-HT uptake inhibitor activity at SERT (in words): rat brain synaptosomes
[5] = molecular target: T5, Dopamine Transporter (DAT) (Rattus norvegicus, UniProt P23977); test: [3H]DA uptake inhibition, rat striatum synaptosomes
[6] = molecular target: T1, Norepinephrine Transporter (NET); test: NET-mediated release, rat brain synaptosomes; type: biochemical
SERT [7] = molecular target: T4, SERT; test: SERT-mediated release, rat brain synaptosomes; settings: for 5-HT releasing activity at SERT (in words): rat brain synaptosomes
[8] = molecular target: T5, Dopamine Transporter (DAT); test: DAT-mediated release, rat striatum synaptosomes

T5 sequence (P23977 whole entry): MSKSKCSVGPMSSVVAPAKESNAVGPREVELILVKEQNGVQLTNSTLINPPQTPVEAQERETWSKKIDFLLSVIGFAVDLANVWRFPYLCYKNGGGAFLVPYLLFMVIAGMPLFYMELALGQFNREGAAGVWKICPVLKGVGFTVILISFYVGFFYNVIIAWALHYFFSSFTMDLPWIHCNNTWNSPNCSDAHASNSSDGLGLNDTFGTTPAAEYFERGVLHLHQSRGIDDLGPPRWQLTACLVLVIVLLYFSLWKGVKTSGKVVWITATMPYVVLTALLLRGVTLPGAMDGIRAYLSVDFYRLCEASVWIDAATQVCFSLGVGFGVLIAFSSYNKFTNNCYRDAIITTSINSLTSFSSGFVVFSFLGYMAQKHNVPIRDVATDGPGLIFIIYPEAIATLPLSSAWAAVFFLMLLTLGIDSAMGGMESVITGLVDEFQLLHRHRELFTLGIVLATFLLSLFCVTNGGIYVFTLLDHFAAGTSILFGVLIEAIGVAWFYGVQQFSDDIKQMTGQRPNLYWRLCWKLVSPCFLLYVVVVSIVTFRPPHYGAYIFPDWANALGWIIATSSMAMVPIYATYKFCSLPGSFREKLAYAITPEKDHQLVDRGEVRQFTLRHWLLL
T1 sequence (Q63380 1-617): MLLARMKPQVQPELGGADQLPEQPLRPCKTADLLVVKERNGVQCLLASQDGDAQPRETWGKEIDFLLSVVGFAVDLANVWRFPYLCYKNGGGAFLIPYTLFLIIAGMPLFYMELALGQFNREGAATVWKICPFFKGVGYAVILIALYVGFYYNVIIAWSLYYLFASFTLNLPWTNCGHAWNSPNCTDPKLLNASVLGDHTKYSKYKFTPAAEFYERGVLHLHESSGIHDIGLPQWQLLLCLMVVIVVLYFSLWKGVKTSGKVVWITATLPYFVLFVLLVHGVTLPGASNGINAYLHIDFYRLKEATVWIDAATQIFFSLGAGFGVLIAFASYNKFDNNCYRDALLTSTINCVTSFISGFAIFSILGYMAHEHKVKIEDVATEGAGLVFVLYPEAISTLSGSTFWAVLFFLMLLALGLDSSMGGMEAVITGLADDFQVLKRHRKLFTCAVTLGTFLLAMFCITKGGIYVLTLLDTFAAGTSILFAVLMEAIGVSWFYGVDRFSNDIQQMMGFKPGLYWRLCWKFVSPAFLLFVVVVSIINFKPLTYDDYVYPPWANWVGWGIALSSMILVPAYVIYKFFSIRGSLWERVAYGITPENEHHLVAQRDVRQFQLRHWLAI
T4 sequence (P31652 whole entry): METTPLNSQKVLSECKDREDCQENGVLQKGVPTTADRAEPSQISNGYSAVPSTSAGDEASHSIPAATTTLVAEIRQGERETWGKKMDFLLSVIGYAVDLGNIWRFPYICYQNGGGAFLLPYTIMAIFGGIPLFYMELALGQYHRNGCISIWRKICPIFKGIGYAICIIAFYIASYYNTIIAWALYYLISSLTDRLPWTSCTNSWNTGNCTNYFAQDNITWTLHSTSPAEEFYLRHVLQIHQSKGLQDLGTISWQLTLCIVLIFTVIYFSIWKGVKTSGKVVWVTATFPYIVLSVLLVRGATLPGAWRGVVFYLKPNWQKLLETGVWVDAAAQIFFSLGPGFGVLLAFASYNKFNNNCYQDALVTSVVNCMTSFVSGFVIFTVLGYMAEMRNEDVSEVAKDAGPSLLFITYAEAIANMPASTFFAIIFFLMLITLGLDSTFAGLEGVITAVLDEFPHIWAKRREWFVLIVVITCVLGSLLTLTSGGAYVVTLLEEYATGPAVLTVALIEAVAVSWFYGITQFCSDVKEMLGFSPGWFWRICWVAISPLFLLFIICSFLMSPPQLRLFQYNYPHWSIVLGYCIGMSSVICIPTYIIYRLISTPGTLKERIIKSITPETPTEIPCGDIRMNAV

COc1ccc2[nH]cc(CCN(C(C)C)C(C)C)c2c1 [Compound 1, N,N-diisopropyl-5-methoxytryptamine]
IC50 [1]: > 10 µM
5-HT2A agonist activity in calcium mobilization assay (in words) (5-HT2A receptor [2]): low nanomolar potency
Emax (5-HT2A receptor [2]): 109 ± 5%
EC50 (5-HT1A receptor): > 10 µM
Emax (5-HT2A receptor [3]): 124 ± 12%
Psychoactive Effects (humans): Erotic, senses distorted, short-lived, could not make intuitive leaps
IC50 (SERT [4]): 0.646 ± 0.048 µM
IC50 [5]: > 10 µM

COc1ccc2[nH]cc(CCN(C)C(C)C)c2c1 [Compound 2, N-isopropyl-N-methyl-5-methoxytryptamine]
IC50 [1]: > 10 µM
5-HT2A agonist activity in calcium mobilization assay (in words) (5-HT2A receptor [2]): low nanomolar potency
Emax (5-HT2A receptor [2]): 101 ± 3%
EC50 (5-HT1A receptor): > 10 µM
EC50 (5-HT2A receptor [3]): 0.566 ± 0.11 µM
Emax (5-HT2A receptor [3]): 82 ± 13%
Psychoactive Effects (humans): Fast onset, stimulates conceptual thought, depersonalization
IC50 (SERT [4]): > 10 µM
5-HT uptake inhibitor activity at SERT (in words) (SERT [4]): totally inactive
IC50 [5]: > 10 µM

CN(C)CCc1c[nH]c2ccccc12 [Compound 6, N,N-dimethyltryptamine]
EC50 [6]: 4.17 ± 0.317 µM
Emax (5-HT2A receptor [2]): 83 ± 0.4%
EC50 (5-HT2A receptor [3]): > 10 µM
5-HT2A β-arrestin recruitment activity (in words) (5-HT2A receptor [3]): inactive
Psychoactive Effects (humans): Heavy intoxicant and hallucinogen, visuals, intense colors
EC50 (SERT [7]): 0.114 ± 0.015 µM
EC50 [8]: > 10 µM

COc1ccc2[nH]cc(CCN(C)C)c2c1 [Compound 7, N,N-dimethyl-5-methoxytryptamine]
IC50 [1]: > 10 µM
5-HT2A agonist activity in calcium mobilization assay (in words) (5-HT2A receptor [2]): low nanomolar potency
Emax (5-HT2A receptor [2]): 101 ± 4%
5-HT1A Emax (5-HT1A receptor): 68 ± 3%
Emax (5-HT2A receptor [3]): 56 ± 6%
Psychoactive Effects (humans): Time distortions, stoned feeling, hallucinogenic at high doses
IC50 (SERT [4]): 2.18 ± 0.222 µM
IC50 [5]: > 10 µM

NCCc1c[nH]c2ccccc12 [Compound 12, Tryptamine]
Emax (5-HT2A receptor [3]): 108 ± 16%
Psychoactive Effects (humans): Psychoactive, short acting due to metabolism, increased blood pressure, similar to LSD
5-HT releasing activity at SERT (in words) (SERT [7]): releasers

CC(N)Cc1c[nH]c2ccccc12 (stereo not drawn) [Compound 13]
Psychoactive Effects (humans): Psychedelic but varied, fast/slow onset, good/bad experiences, long lasting, no visuals, speed-like, tachycardia, jaw clenching

CNCCc1c[nH]c2ccccc12 [Compound 14, N-methyltryptamine]
EC50 (5-HT1A receptor): > 10 µM
EC50 (5-HT2A receptor [3]): > 10 µM
5-HT2A β-arrestin recruitment activity (in words) (5-HT2A receptor [3]): inactive

CN(C)CCc1c[nH]c2ccc(O)cc12 [Compound 16, N,N-dimethyl-5-hydroxytryptamine]
EC50 [6]: > 10 µM
EC50 (5-HT1A receptor): 0.366 ± 0.067 µM
Psychoactive Effects (humans): Some visuals (lines and dots), tightness in chest, nausea, breathing issues, mind feels crowded
EC50 [8]: > 10 µM

CNCCc1c[nH]c2ccc(OC)cc12 [Compound 17]
5-HT2A Emax (5-HT2A receptor [2]): 84 ± 20%
5-HT1A Emax (5-HT1A receptor): 72 ± 4%
5-HT2A β-arrestin Emax (5-HT2A receptor [3]): 66 ± 9%
5-HT releasing activity at SERT (in words) (SERT [7]): releasers

CCNCCc1c[nH]c2ccc(OC)cc12 [Compound 18, 5-methoxy-N-ethyltryptamine]
EC50 [6]: > 10 µM
Emax (5-HT2A receptor [2]): 112 ± 3%
EC50 (5-HT1A receptor): 0.262 ± 0.027 µM
EC50 (5-HT2A receptor [3]): 0.568 ± 0.174 µM
Emax (5-HT2A receptor [3]): 103 ± 12%
5-HT2A β-arrestin recruitment activity (in words) (5-HT2A receptor [3]): fully efficacious
EC50 (SERT [7]): 0.284 ± 0.0416 µM
5-HT releasing activity at SERT (in words) (SERT [7]): releasers
EC50 [8]: > 10 µM

CCN(CC)CCc1c[nH]c2ccccc12 [Compound 19]
5-HT2A Emax (5-HT2A receptor [2]): 90 ± 6%
Psychoactive Effects (humans): Psychoactive, visuals, vertigo
Fold more potent at SERT uptake inhibition than 5-MeO-DET (SERT [4]; DET versus 5-MeO-DET (26)): 10 fold

CC(C)NCCc1c[nH]c2ccccc12 [Compound 20]
5-HT2A Emax (5-HT2A receptor [2]): 96 ± 3%
Psychoactive Effects (humans): Light-headed intoxicant, pleasant buzz

CCCN(CCC)CCc1c[nH]c2ccccc12 [Compound 21]
5-HT2A Emax (5-HT2A receptor [2]): 97 ± 3%
5-HT2A β-arrestin Emax (5-HT2A receptor [3]): 63 ± 8%
Psychoactive Effects (humans): Intensely visual, long lasting, things appear fast, religious experiences

CC(C)N(CCc1c[nH]c2ccccc12)C(C)C [Compound 22]
5-HT2A Emax (5-HT2A receptor [2]): 110 ± 2%
Psychoactive Effects (humans): Auditory, not visual, heard voices, sounds had “golden spikes”, religious overtones

CC(C)N(C)CCc1c[nH]c2ccccc12 [Compound 23]
5-HT2A Emax (5-HT2A receptor [2]): 74 ± 5%
Psychoactive Effects (humans): Mild hallucinations, stimulant, fast onset, psychedelic
5-HT uptake inhibitor activity at SERT (in words) (SERT [4]): totally inactive

CN(C)CCc1c[nH]c2cccc(O)c12 [Compound 24, Psilocin]
IC50 [1]: > 10 µM
Emax (5-HT2A receptor [2]): 76 ± 7%
Psychoactive Effects (humans): Very visual, lots of colors, better at night
IC50 (SERT [4]): 0.662 ± 0.041 µM
IC50 [5]: > 10 µM

COc1ccc2[nH]cc(CCN)c2c1 [Compound 25]
5-HT1A Emax (5-HT1A receptor): 66 ± 4%
Psychoactive Effects (humans): Not particularly active, possibly due to metabolism similar to 12

CCN(CC)CCc1c[nH]c2ccc(OC)cc12 [Compound 26]
5-HT2A agonist activity in calcium mobilization assay (in words) (5-HT2A receptor [2]): low nanomolar potency
5-HT2A Emax (5-HT2A receptor [2]): 101 ± 0.8%
5-HT1A Emax (5-HT1A receptor): 67 ± 2%
5-HT2A β-arrestin Emax (5-HT2A receptor [3]): 64 ± 8%
Psychoactive Effects (humans): Auditory changes, negative experiences, anxiety

COc1ccc2[nH]cc(CCNC(C)C)c2c1 [Compound 27]
5-HT2A agonist activity in calcium mobilization assay (in words) (5-HT2A receptor [2]): low nanomolar potency
5-HT2A Emax (5-HT2A receptor [2]): 101 ± 2%
5-HT2A β-arrestin Emax (5-HT2A receptor [3]): 99 ± 6%

CCCN(CCC)CCc1c[nH]c2ccc(OC)cc12 [Compound 28]
5-HT2A agonist activity in calcium mobilization assay (in words) (5-HT2A receptor [2]): low nanomolar potency
5-HT2A Emax (5-HT2A receptor [2]): 101 ± 3%
5-HT1A Emax (5-HT1A receptor): 43 ± 5%
5-HT2A β-arrestin Emax (5-HT2A receptor [3]): 68 ± 2%
Psychoactive Effects (humans): Comfortable at low doses, oscillating good and bad sounds, negative side dominated as buzz continues
